Assay results published in the NIST ThermoML archive (doi:10.1016/j.fluid.2009.06.018).
Numbers after ± are expanded uncertainties.

Legend:
[1] = xn = mol fraction of the nth substance listed; settings: 298.15 K, 101 kPa, Liquid, Vibrating tube method
[2] = excess molar enthalpy (molar enthalpy of mixing); xn = mol fraction of the nth substance listed; settings: 298.15 K, 101 kPa, Liquid, Flow calorimetry
[3] = refractive index (Na D-line) (dimensionless); settings: 298.15 K; 101.33 kPa; Liquid; Standard Abbe refractometry
[4] = 298.15 K; 101.33 kPa; Liquid; Vibrating tube method

SMILES: CCCCOCCOCCOCCO [triethylene glycol monobutyl ether] + CC(Cl)CCl
- mass density ([1]; x2 = 0.0919): 996.32 ± 270 kg/m3
- mass density ([1]; x2 = 0.1463): 1001.35 ± 230 kg/m3
- mass density ([1]; x2 = 0.2006): 1006.67 ± 200 kg/m3
- mass density ([1]; x2 = 0.2501): 1011.79 ± 170 kg/m3
- mass density ([1]; x2 = 0.3036): 1017.68 ± 150 kg/m3
- mass density ([1]; x2 = 0.3548): 1023.63 ± 120 kg/m3
- mass density ([1]; x2 = 0.4015): 1029.38 ± 100 kg/m3
- mass density ([1]; x2 = 0.4519): 1035.95 ± 86 kg/m3
- mass density ([1]; x2 = 0.5032): 1043.04 ± 70 kg/m3
- mass density ([1]; x2 = 0.5498): 1049.9 ± 57 kg/m3
- mass density ([1]; x2 = 0.6016): 1058.03 ± 45 kg/m3
- mass density ([1]; x2 = 0.6526): 1066.61 ± 34 kg/m3
- mass density ([1]; x2 = 0.701): 1075.35 ± 26 kg/m3
- mass density ([1]; x2 = 0.7502): 1084.93 ± 18 kg/m3
- mass density ([1]; x2 = 0.8009): 1095.6 ± 12 kg/m3
- mass density ([1]; x2 = 0.851): 1107.21 ± 7.6 kg/m3
- mass density ([1]; x2 = 0.9003): 1119.7 ± 4.1 kg/m3
- mass density ([1]; x2 = 0.9483): 1133.01 ± 1.7 kg/m3
- excess molar enthalpy ([2]; x2 = 0.079): -0.0579 ± 0.00146 kcal/mol
- excess molar enthalpy ([2]; x2 = 0.117): -0.0778 ± 0.0016 kcal/mol
- excess molar enthalpy ([2]; x2 = 0.154): -0.102 ± 0.00167 kcal/mol
- excess molar enthalpy ([2]; x2 = 0.19): -0.121 ± 0.00153 kcal/mol
- excess molar enthalpy ([2]; x2 = 0.256): -0.146 ± 0.0016 kcal/mol
- excess molar enthalpy ([2]; x2 = 0.317): -0.167 ± 0.00167 kcal/mol
- excess molar enthalpy ([2]; x2 = 0.346): -0.1746 ± 0.00167 kcal/mol
- excess molar enthalpy ([2]; x2 = 0.401): -0.1859 ± 0.00172 kcal/mol
- excess molar enthalpy ([2]; x2 = 0.452): -0.1912 ± 0.00172 kcal/mol
- excess molar enthalpy ([2]; x2 = 0.5): -0.1913 ± 0.00172 kcal/mol
- excess molar enthalpy ([2]; x2 = 0.545): -0.188 ± 0.0017 kcal/mol
- excess molar enthalpy ([2]; x2 = 0.606): -0.1763 ± 0.00165 kcal/mol
- excess molar enthalpy ([2]; x2 = 0.645): -0.1648 ± 0.00163 kcal/mol
- excess molar enthalpy ([2]; x2 = 0.698): -0.145 ± 0.00155 kcal/mol
- excess molar enthalpy ([2]; x2 = 0.746): -0.123 ± 0.00151 kcal/mol
- excess molar enthalpy ([2]; x2 = 0.805): -0.0932 ± 0.00143 kcal/mol
- excess molar enthalpy ([2]; x2 = 0.859): -0.0635 ± 0.00136 kcal/mol
- excess molar enthalpy ([2]; x2 = 0.907): -0.0371 ± 0.00122 kcal/mol
- excess molar enthalpy ([2]; x2 = 0.951): -0.0164 ± 0.0011 kcal/mol

SMILES: CCCOCCOCCO [2-(2-propoxyethoxy)ethanol]
- refractive index [3]: 1.42727 ± 0.00078
- mass density [4]: 962.74 ± 0.8 kg/m3

SMILES: CCOCCOCCOCCO [2-(2-(2-ethoxyethoxy)ethoxy)ethanol] + CC(Cl)CCl
- mass density ([1]; x2 = 0.0522): 1020.53 ± 22 kg/m3
- mass density ([1]; x2 = 0.1019): 1024.84 ± 20 kg/m3
- mass density ([1]; x2 = 0.1497): 1029.19 ± 18 kg/m3
- mass density ([1]; x2 = 0.2027): 1034.17 ± 16 kg/m3
- mass density ([1]; x2 = 0.2538): 1039.19 ± 15 kg/m3
- mass density ([1]; x2 = 0.3014): 1044.06 ± 13 kg/m3
- mass density ([1]; x2 = 0.3475): 1048.98 ± 12 kg/m3
- mass density ([1]; x2 = 0.4037): 1055.22 ± 10 kg/m3
- mass density ([1]; x2 = 0.4507): 1060.69 ± 8.8 kg/m3
- mass density ([1]; x2 = 0.5006): 1066.74 ± 7.5 kg/m3
- mass density ([1]; x2 = 0.553): 1073.37 ± 6.3 kg/m3
- mass density ([1]; x2 = 0.6023): 1079.92 ± 5.3 kg/m3
- mass density ([1]; x2 = 0.6499): 1086.58 ± 4.3 kg/m3
- mass density ([1]; x2 = 0.7036): 1094.48 ± 3.4 kg/m3
- mass density ([1]; x2 = 0.7524): 1102.1 ± 2.7 kg/m3
- mass density ([1]; x2 = 0.8009): 1110.06 ± 2 kg/m3
- mass density ([1]; x2 = 0.8494): 1118.49 ± 1.5 kg/m3
- mass density ([1]; x2 = 0.8988): 1127.79 ± 1 kg/m3
- mass density ([1]; x2 = 0.9495): 1138.04 ± 0.64 kg/m3
- excess molar enthalpy ([2]; x2 = 0.067): -0.0506 ± 0.00117 kcal/mol
- excess molar enthalpy ([2]; x2 = 0.101): -0.0657 ± 0.00139 kcal/mol
- excess molar enthalpy ([2]; x2 = 0.164): -0.104 ± 0.00158 kcal/mol
- excess molar enthalpy ([2]; x2 = 0.195): -0.121 ± 0.00146 kcal/mol
- excess molar enthalpy ([2]; x2 = 0.253): -0.145 ± 0.00153 kcal/mol
- excess molar enthalpy ([2]; x2 = 0.308): -0.1638 ± 0.00158 kcal/mol
- excess molar enthalpy ([2]; x2 = 0.36): -0.1773 ± 0.00163 kcal/mol
- excess molar enthalpy ([2]; x2 = 0.41): -0.1859 ± 0.00165 kcal/mol
- excess molar enthalpy ([2]; x2 = 0.457): -0.1887 ± 0.00165 kcal/mol
- excess molar enthalpy ([2]; x2 = 0.501): -0.1888 ± 0.00165 kcal/mol
- excess molar enthalpy ([2]; x2 = 0.544): -0.1854 ± 0.00165 kcal/mol
- excess molar enthalpy ([2]; x2 = 0.604): -0.174 ± 0.0016 kcal/mol
- excess molar enthalpy ([2]; x2 = 0.66): -0.1571 ± 0.00155 kcal/mol
- excess molar enthalpy ([2]; x2 = 0.695): -0.144 ± 0.00155 kcal/mol
- excess molar enthalpy ([2]; x2 = 0.745): -0.122 ± 0.00151 kcal/mol
- excess molar enthalpy ([2]; x2 = 0.807): -0.0893 ± 0.00143 kcal/mol
- excess molar enthalpy ([2]; x2 = 0.85): -0.0656 ± 0.00136 kcal/mol
- excess molar enthalpy ([2]; x2 = 0.904): -0.036 ± 0.0012 kcal/mol
- excess molar enthalpy ([2]; x2 = 0.954): -0.0131 ± 0.00108 kcal/mol

SMILES: CCCCOCCOCCO [3,6-dioxa-1-decanol]
- refractive index [3]: 1.42998 ± 0.00078
- mass density [4]: 948.48 ± 0.78 kg/m3

SMILES: COCCOCCOCCO [2-[2-(2-methoxyethoxy)ethoxy]ethanol]
- refractive index [3]: 1.43673 ± 0.0009
- mass density [4]: 1043.3 ± 2.1 kg/m3

SMILES: COCCOCCOCCO [2-[2-(2-methoxyethoxy)ethoxy]ethanol] + CC(Cl)CCl
- mass density ([1]; x2 = 0.0554): 1047.4 ± 1.9 kg/m3
- mass density ([1]; x2 = 0.1): 1050.82 ± 1.8 kg/m3
- mass density ([1]; x2 = 0.1507): 1054.88 ± 1.7 kg/m3
- mass density ([1]; x2 = 0.1999): 1058.91 ± 1.6 kg/m3
- mass density ([1]; x2 = 0.2535): 1063.43 ± 1.5 kg/m3
- mass density ([1]; x2 = 0.2977): 1067.32 ± 1.4 kg/m3
- mass density ([1]; x2 = 0.3483): 1071.88 ± 1.3 kg/m3
- mass density ([1]; x2 = 0.401): 1076.8 ± 1.2 kg/m3
- mass density ([1]; x2 = 0.4512): 1081.66 ± 1.1 kg/m3
- mass density ([1]; x2 = 0.5013): 1086.65 ± 1 kg/m3
- mass density ([1]; x2 = 0.5522): 1091.89 ± 0.93 kg/m3
- mass density ([1]; x2 = 0.6013): 1097.16 ± 0.85 kg/m3
- mass density ([1]; x2 = 0.648): 1102.3 ± 0.78 kg/m3
- mass density ([1]; x2 = 0.7005): 1108.34 ± 0.7 kg/m3
- mass density ([1]; x2 = 0.7514): 1114.4 ± 0.63 kg/m3
- mass density ([1]; x2 = 0.7997): 1120.38 ± 0.57 kg/m3
- mass density ([1]; x2 = 0.8567): 1127.98 ± 0.5 kg/m3
- mass density ([1]; x2 = 0.8993): 1133.84 ± 0.46 kg/m3
- mass density ([1]; x2 = 0.9502): 1141.27 ± 0.4 kg/m3
- excess molar enthalpy ([2]; x2 = 0.061): -0.0429 ± 0.00112 kcal/mol
- excess molar enthalpy ([2]; x2 = 0.091): -0.0565 ± 0.00134 kcal/mol
- excess molar enthalpy ([2]; x2 = 0.15): -0.0912 ± 0.00143 kcal/mol
- excess molar enthalpy ([2]; x2 = 0.206): -0.119 ± 0.00143 kcal/mol
- excess molar enthalpy ([2]; x2 = 0.26): -0.14 ± 0.00148 kcal/mol
- excess molar enthalpy ([2]; x2 = 0.311): -0.1575 ± 0.00153 kcal/mol
- excess molar enthalpy ([2]; x2 = 0.36): -0.1693 ± 0.00155 kcal/mol
- excess molar enthalpy ([2]; x2 = 0.407): -0.1774 ± 0.00158 kcal/mol
- excess molar enthalpy ([2]; x2 = 0.452): -0.1811 ± 0.0016 kcal/mol
- excess molar enthalpy ([2]; x2 = 0.496): -0.1814 ± 0.0016 kcal/mol
- excess molar enthalpy ([2]; x2 = 0.558): -0.1759 ± 0.00158 kcal/mol
- excess molar enthalpy ([2]; x2 = 0.597): -0.1682 ± 0.00158 kcal/mol
- excess molar enthalpy ([2]; x2 = 0.654): -0.1526 ± 0.00151 kcal/mol
- excess molar enthalpy ([2]; x2 = 0.707): -0.133 ± 0.00146 kcal/mol
- excess molar enthalpy ([2]; x2 = 0.757): -0.111 ± 0.00141 kcal/mol
- excess molar enthalpy ([2]; x2 = 0.805): -0.0875 ± 0.00139 kcal/mol
- excess molar enthalpy ([2]; x2 = 0.851): -0.0629 ± 0.00131 kcal/mol
- excess molar enthalpy ([2]; x2 = 0.908): -0.0328 ± 0.00117 kcal/mol
- excess molar enthalpy ([2]; x2 = 0.949): -0.0144 ± 0.00105 kcal/mol
